Source: patent US20250205372A1, “RADIOPHARMACEUTICAL COMPOSITIONS, SYNTHETIC METHODS, AND METHODS OF TREATMENT” (The Research Foundation for The State University of New York, priority 2022, published 2025)

Assays:
Type in all cases: physicochemical
[1] = Cleavage assay for cold complexes: pH-dependent autolytic cleavage monitored by LCMS/analytical HPLC; settings: 80° C. and pH 4.5
Protocol: Cleavage of the cold model complexes was observed over a range of physiological pH conditions, including pH values of 4.5, 5.5, 6.5, and 7.5. Aqueous buffer solutions were prepared using 10 mM sodium acetate (pH 4.5 and 5.5) or 10 mM HEPES (pH 6.5 and 7.5), which were subsequently adjusted to the desired pH using NaOH and/or HCl. An aliquot of the complex was placed in an aqueous solution of the desired pH and incubated for 48 hours at 80° C., monitored regularly via LCMS.

[2] = Quantitation of the ^68Ga(8) product released from TG-10 resin over time
[3] = Variable temperature mass spectrometry (VTMS): binding of the first second sphere water; settings: gas phase
Protocol: VTMS and CIVP: All experiments were carried out in a home-built quadrupole time-of-flight mass spectrometer described elsewhere (Waller, 2019). Briefly, the complexes were introduced into the gas phase via an electrospray ionization (ESI) source purged with dry air using PEEK tubing of 50 μm inner diameter. All samples were diluted to 50-100 μM in 50/50 acetonitrile/water from 500 μM stock solutions and an optimized flow rate of 0.6 μL/min was employed. The ESI voltages were typically 2050-2080 V, low enough to prevent sample degradation while still ensuring steady signal. Once generated, the ions were introduced into a vacuum system and stored in a room temperature […] trap. Ions were extracted from this trap and mass selected by a quadrupole mass filter (Extrel), then guided into a cryogenically cooled ion trap capable of operating in a temperature range of 310 K-3 K. For Variable temperature mass spectrometry (VTMS) measurements (Racow, 2019), a mixture of water and helium was introduced via a pulsed valve allowing the formation of hydrated complexes, if thermodynamically feasible. A fraction of ions was then extracted, at 10 Hz, into a reflectron time-of-flight (TOF) mass spectrometer to analyze the relative intensities of the resulting hydrates. The trap was cooled down from 310 K at a rate of ˜1 K/min and mass spectra were collected by summing 1000 scans at 10 K intervals in the cooling down period. The partial pressure of water was maintained between 4×10−8 to 2×10^−7 Torr as detected by a residual gas analyzer (Extorr). Vibrational spectra were recorded using a method known as Cryogenic Ion Vibrational Predissociation (CIVP) spectroscopy as described previously (Yang 2019). Briefly, a mixture of N2 and helium was seeded into the cryogenic ion trap, encouraging the formation of nitrogen adducts (so-called “tags”) typically between 45 K-48 K. Tagged complexes were extracted into the TOF and intersected by a tunable infrared laser pulse from a Nd:YAG pumped OPO/OPA system (LaserVision). The tagged ions absorb a single photon when the wavelength is resonant with a vibrational transition, resulting in the desorption of the tag from the ions. Fragment ion yields were subsequently quantified by a reflectron mass spectrometer. The ratio of fragment to tagged ions, corrected for the laser power, at each wavelength thus yields a linear absorption spectrum of the ions of interest that can be analyzed in the same way as atypical FTIR spectrum.
Data Analysis and Detailed Discussion. The variable temperature mass spectra and corresponding speciation curves of the protonated tripeptide+NOTA (4) and the Ga-tripeptide-NOTA complex (^natGa-4) are shown in FIGS. 71-75. At the highest temperature shown in both figures, no water adduct is observed. […] Similar values were found for the metal-free complex, further confirming that only second sphere hydration events were observed.

[4] = Temperature-dependent autolytic release from ^67Ga-radiolabeled model peptides (radioHPLC)
Protocol: ^67Ga-citrate was purchased from Jubilant Radiopharma at an average specific activity of 205.0 MBq/mL. The ^67Ga-citrate solution was first converted to ^67GaCl3 using an established solid-phase extraction protocol (Pandy, 2021). The resulting average specific activity of the obtained ^67Ga-chloride solution used for solution radio-labelling was 80.5 MBq/mL. For radio-labeling of NOTA-based model peptides or compound 10, a 20 μL aliquot containing 4.5 MBq of ^67GaCl3 was added to the conjugate (10 nmol, 300 μL) in 10 mM of sodium acetate (NaOAc) buffer. The pH of the solution was adjusted to 5.0. Radiolabeling was completed after 20 minutes at room temperature. The radiolabeled conjugates were characterized with radio-HPLC.

In the case of “^natCopper (S)-2,2′-(7-(2-((2-((2-((1-amino-3-(1H-indol-3-yl)-1-oxopropan-2-yl)amino)-2-oxoethyl)amino)-2-oxoethyl)amino)-2-oxoethyl)-1,4,7-triazonane-1,4-diyl)diacetate [^natCu-3]”, the “autolytic release (analytical HPLC chromatograms)” value [1] is reported as “no autolytic release”.

For “^natCopper 2,2′,2-(10-(2-(((R)-1-((2-(((S)-1-amino-3-(1H-indol-3-yl)-1-oxopropan-2-yl)amino)-2-oxoethyl)amino)-3-hydroxy-1-oxopropan-2-yl)amino)-2-oxoethyl)-1,4,7,10-tetraazacyclododecane-1,4,7-triyl)triacetate [^natCu-5]”, the “autolytic release (analytical HPLC chromatograms)” value [1] was “no autolytic release”.

For “^natScandium 2,2′,2″-(10-(2-((1-1-((2-(((S)-1-amino-3-(1H-indol-3-yl)-1-oxopropan-2-yl)amino)-2-oxoethyl)amino)-3-hydroxy-1-oxopropan-2-yl)amino)-2-oxoethyl)-1,4,7,10-tetraazacyclododecane-1,4,7-triyl)triacetate [^natSc-5]”, the “autolytic release (analytical HPLC chromatograms)” value [1] was “no autolytic release”.

For “(S)-2,2′-(7-(2-((2-((2-((I-amino-3-(1H-indol-3-yl)-1-oxopropan-2-yl)amino)-2-oxoethyl)amino)-2-oxoethyl)amino)-2-oxoethyl)-1,4,7-triazonane-1,4-diyl)diacetic acid [Compound 3]”, the “autolytic release (analytical HPLC chromatograms)” value [1] was “no autolytic release”.

In the case of “^68Gallium (((1S)-1-carboxy-5-(3-(naphthalen-2-yl)-2-((1r,4S)-4-((6-oxo-6-((4-((1,4,7-tris(carboxymethyl)-1,4,7-triazonan-2-yl)methyl)phenyl)amino)hexanamido)methyl)cyclohexane-1-carboxamido)propanamido)pentyl)carbamoyl)-L-glutamic acid triacetate [^68Ga(8)]”, the “Activity released per time” value ([2]; released from TG-10, 10 min) is reported as 14.2 ± 1.57%, the Cumulative released activity ([2]; released from TG-10, 10 min) is reported as 14.2 ± 1.57% and the “Activity released per time” value ([2]; released from TG-10, 20 min) is reported as 17.9 ± 0.97%. The Cumulative released activity ([2]; released from TG-10, 20 min) was 32.1 ± 0.60%, the “Activity released per time” value ([2]; released from TG-10, 30 min) was 18.9 ± 0.61% and the Cumulative released activity ([2]; released from TG-10, 30 min) was 50.9 ± 1.21%. For the same substance, the “Activity released per time” value ([2]; released from TG-10, 60 min) was 15.4 ± 0.85%, the Cumulative released activity ([2]; released from TG-10, 60 min) was 66.3 ± 0.36% and the “Activity released per time” value ([2]; released from TG-10, 90 min) was 11.5 ± 0.84%. For the same substance, the Cumulative released activity ([2]; released from TG-10, 90 min) was 77.8 ± 1.20%, the “Activity released per time” value ([2]; released from TG-10, 120 min) was 9.2 ± 1.56% and the Cumulative released activity ([2]; released from TG-10, 120 min) was 87.0 ± 2.76%. The Cumulative released activity ([2]; released from TG-10, last line of table, time not given) was 88.0%.

In the case of “^natCopper 2,2′-(7-(2-((1-1-((2-(((S)-1-amino-3-(1H-indol-3-yl)-1-oxopropan-2-yl)amino)-2-oxoethyl)amino)-3-hydroxy-1-oxopropan-2-yl)amino)-2-oxoethyl)-1,4,7-triazonane-1,4-diyl)diacetate [^natCu-4]”, the “autolytic release (analytical HPLC chromatograms)” value [1] is reported as “no autolytic release”.

With “2,2′-(7-(2-((1-1-((2-(((S)-1-amino-3-(1H-indol-3-yl)-1-oxopropan-2-yl)amino)-2-oxoethyl)amino)-3-hydroxy-1-oxopropan-2-yl)amino)-2-oxoethyl)-1,4,7-triazonane-1,4-diyl)diacetic acid [Compound 4]” the “ΔG (ΔG^298) for the binding of the first second sphere water” value [3] was -6.74 ± 0.19 kcal/mol, the “ΔH for the binding of the first second sphere water” value [3] was -13.2 ± 0.12 kcal/mol and the “ΔS for the binding of the first second sphere water” value [3] was −91.3 +/− 2.2 J/mol K.

For “^67Gallium (S)-2,2′-(7-(2-((2-((2-((I-amino-3-(1H-indol-3-yl)-1-oxopropan-2-yl)amino)-2-oxoethyl)amino)-2-oxoethyl)amino)-2-oxoethyl)-1,4,7-triazonane-1,4-diyl)diacetate [^67Ga-3]”, the “autolytic release (analytical radioHPLC chromatograms)” value ([4]; 25° C.) was “no autolytic release” and the “autolytic release (analytical radioHPLC chromatograms)” value ([4]; 37° C.) was “lack of fast autolytic release”.

In the case of “^natGallium 2,2′,2″-(10-(2-((1-1-((2-(((S)-1-amino-3-(1H-indol-3-yl)-1-oxopropan-2-yl)amino)-2-oxoethyl)amino)-3-hydroxy-1-oxopropan-2-yl)amino)-2-oxoethyl)-1,4,7,10-tetraazacyclododecane-1,4,7-triyl)triacetate [^natGa-5]”, the “autolytic release (analytical HPLC chromatograms)” value [1] is reported as “no autolytic release”.

In the case of “^natGallium 2,2′-(7-(2-((1-1-((2-(((S)-1-amino-3-(1H-indol-3-yl)-1-oxopropan-2-yl)amino)-2-oxoethyl)amino)-3-hydroxy-1-oxopropan-2-yl)amino)-2-oxoethyl)-1,4,7-triazonane-1,4-diyl)diacetate [^natGa-4]”, the “ΔG (ΔG^298) for the binding of the first second sphere water” value [3] is reported as -7.19 ± 0.645 kcal/mol, the “ΔH for the binding of the first second sphere water” value [3] is reported as -11.7 ± 0.621 kcal/mol and the “ΔS for the binding of the first second sphere water” value [3] is reported as −62.9 +/− 17.5 J/mol K.

For “^67Gallium 2,2′,2″-(10-(2-((1-1-((2-(((S)-1-amino-3-(H-indol-3-yl)-1-oxopropan-2-yl)amino)-2-oxoethyl)amino)-3-hydroxy-1-oxopropan-2-yl)amino)-2-oxoethyl)-1,4,7,10-tetraazacyclododecane-1,4,7-triyl)triacetate [^67Ga-5]”, the “autolytic release (analytical radioHPLC chromatograms)” value ([4]; 25° C.) was “no autolytic release”, the “autolytic release (analytical radioHPLC chromatograms)” value ([4]; 37° C.) was “no autolytic release” and the “autolytic release (analytical radioHPLC chromatograms)” value ([4]; 80° C.) was “no autolytic release”.
